The results in this text go back to US9867796B2, “Combination of a leucine source and an omega-3 unsaturated fatty acid source for use in the treatment of hypercalcaemia” (N.V. Nutricia, priority 2009, dated 2018).

The subject of assay [1] is tumour-bearing mice (Murine C-26 adenocarcinoma cells). In words: Plasma calcium levels in C-26 tumour-bearing mice, single or combined ingredients (experiment A). The assay is classed as in vivo. The note with it: diet added to AIN93-M high protein, day 20, compared to TB on control diet (FIG. 1B).
Assay [2] has the same test system. Kind of assay: Bone mineral density in C-26 tumour-bearing mice on experimental diets (experiment A). The assay is classed as in vivo. The following applies: diet added to AIN93-M high protein, day 20, compared to TB on control diet (FIG. 1A).

SMILES strings stand for the structures.

As to `CC(C)C[C@H](N)C(=O)O` [leucine], the plasma calcium levels result in assay [1] is given as “no effect”. For the same molecule, the bone mineral density entry in assay [2] was “did not result in significant changes compared to TB”.
